From US7576222B2, “Alkynyl-containing tryptophan derivative inhibitors of TACE/matrix metalloproteinase” (priority 2004, dated 2009)

molecular target: T1, catalytic domain of the recombinant TACE protein (Homo sapiens, UniProt P78536); experiment: TACE FRET assay using TACE cat; type: biochemical; details: not given
T1 construct: The catalytic domain of the recombinant TACE protein was expressed and purified; made in house
Procedure, shortened: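 Initial fluorescence rate of Abz-[sequence]-Dpa pro-TNF-α peptide cleavage (substrate from 2 mM stock) read after adding substrate to enzyme (1 ug/ml) preincubated 10 min, room temperature, with inhibitor.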

T1 sequence (P78536 223-474 limits assumed): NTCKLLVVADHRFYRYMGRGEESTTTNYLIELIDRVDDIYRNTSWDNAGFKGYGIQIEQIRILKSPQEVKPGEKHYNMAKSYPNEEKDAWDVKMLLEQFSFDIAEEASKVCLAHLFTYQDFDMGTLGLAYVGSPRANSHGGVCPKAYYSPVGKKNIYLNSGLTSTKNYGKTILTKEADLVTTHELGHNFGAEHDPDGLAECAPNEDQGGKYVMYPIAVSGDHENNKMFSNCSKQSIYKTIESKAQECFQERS

Row | Compound | IC50 [nM]
1 | CC#CCOc1ccc(S(=O)(=O)N[C@H](Cc2cn(CC3CCCCC3)c3ccccc23)C(=O)O)cc1 [Example 23, N-{[4-(but-2-ynyloxy)phenyl]sulfonyl}-1-(cyclohexylmethyl)-D-tryptophan] | 1710
2 | CC#CCOc1ccc(S(=O)(=O)N[C@@H](Cc2cn(CC3CCCCC3)c3ccc(OC)cc23)C(=O)O)cc1 [Example 70, N-{[4-(but-2-ynyloxy)phenyl]sulfonyl}-1-(cyclohexylmethyl)-5-methoxytryptophan] | 1870
3 | CC#CCOc1ccc(S(=O)(=O)N[C@@H](Cc2cn(CCCCC)c3ccc(OC)cc23)C(=O)O)cc1 [Example 68, N-{[4-(but-2-ynyloxy)phenyl]sulfonyl}-5-methoxy-1-pentyltryptophan] | 1320
4 | CC#CCOc1ccc(S(=O)(=O)N[C@@H](Cc2cn(CC(C)C)c3ccc(OC)cc23)C(=O)O)cc1 [Example 67, N-{[4-(but-2-ynyloxy)phenyl]sulfonyl}-1-isobutyl-5-methoxytryptophan] | 1230

same assay, conditions: TACE FRET assay, catalytic domain of recombinant TACE; read-out: TACE IC50

Row | Compound | IC50 [nM]
5 | N-{[4-(but-2-ynyloxy)phenyl]sulfonyl}-methoxy-L(or D)-tryptophan [Example 222] | 10100
6 | C=CCOc1ccc(Cn2cc(C[C@@H](NS(=O)(=O)c3ccc(OCC#CC)cc3)C(=O)O)c3ccccc32)cc1 [Example 216, 1-[4-(allyloxy)benzyl]-N-{[4-(but-2-ynyloxy)phenyl]sulfonyl}-D-tryptophan] | 540

same assay, conditions: read-out: TACE Inhibition (%)

Row | Compound | inhibition at 1 µM [%]
7 | CC#CCOc1ccc(S(=O)(=O)N[C@@H](Cc2cn(Cc3cccc(C#N)c3)c3ccc(C(=O)O)cc23)C(=O)O)cc1 [Example 122, N-{[4-(but-2-ynyloxy)phenyl]sulfonyl}-5-carboxy-1-(3-cyanobenzyl)tryptophan] | -0.34
8 | CC#CCOc1ccc(S(=O)(=O)N[C@@H](Cc2cn(Cc3ccccc3OC)c3ccc(C#N)cc23)C(=O)O)cc1 [Example 137, N-{[4-(but-2-ynyloxy)phenyl]sulfonyl}-5-cyano-1-(2-methoxybenzyl)tryptophan] | 12.1
9 | CC#CCOc1ccc(S(=O)(=O)N[C@@H](Cc2c(C)n(Cc3cccc(C(F)(F)F)c3)c3ccccc23)C(=O)O)cc1 [Example 149, N-{[4-(but-2-ynyloxy)phenyl]sulfonyl}-2-methyl-1-[3-(trifluoromethyl)benzyl]tryptophan] | 50.5
10 | CC#CCOc1ccc(S(=O)(=O)N[C@@H](Cc2cn(Cc3ccc(C(C)C)cc3)c3ccc(C(=O)O)cc23)C(=O)O)cc1 [Example 120, N-{[4-(but-2-ynyloxy)phenyl]sulfonyl}-5-carboxy-1-(4-isopropylbenzyl)tryptophan] | 10
11 | CC#CCOc1ccc(S(=O)(=O)N[C@@H](Cc2c(C)n(CC)c3ccc(OC)cc23)C(=O)O)cc1 [Example 209, N-{[4-(but-2-ynyloxy)phenyl]sulfonyl}-1-ethyl-5-methoxy-2-methyltryptophan] | 69.8
12 | CC#CCOc1ccc(S(=O)(=O)N[C@@H](Cc2cn(Cc3ccccc3)c3ccc(OC)cc23)C(=O)O)cc1 [Example 48, 1-benzyl-N-{[4-(but-2-ynyloxy)phenyl]sulfonyl}-5-methoxytryptophan] | 37.2
13 | CC#CCOc1ccc(S(=O)(=O)N[C@@H](Cc2cn(Cc3cccc(OC)c3)c3ccc(C#N)cc23)C(=O)O)cc1 [Example 138, N-{[4-(but-2-ynyloxy)phenyl]sulfonyl}-5-cyano-1-(3-methoxybenzyl)tryptophan] | 29.4
14 | CC#CCOc1ccc(S(=O)(=O)N[C@@H](Cc2c(C)n(Cc3cccc(C)c3)c3ccc(OC)cc23)C(=O)O)cc1 [Example 187, N-{[4-(but-2-ynyloxy)phenyl]sulfonyl}-5-methoxy-2-methyl-1-(3-methylbenzyl)tryptophan] | 78.8
15 | CC#CCOc1ccc(S(=O)(=O)N[C@@H](Cc2c(C)n(Cc3ccc(Cl)cc3)c3ccc(Cl)cc23)C(=O)O)cc1 [Example 96, N-{[4-(but-2-ynyloxy)phenyl]sulfonyl}-5-chloro-1-(4-chlorobenzyl)-2-methyltryptophan] | 56.5
16 | CC#CCOc1ccc(S(=O)(=O)N[C@@H](Cc2cn(Cc3ccccc3C)c3ccc(C(=O)O)cc23)C(=O)O)cc1 [Example 104, N-{[4-(but-2-ynyloxy)phenyl]sulfonyl}-5-carboxy-1-(2-methylbenzyl)tryptophan] | 5.79
17 | CC#CCOc1ccc(S(=O)(=O)N[C@@H](Cc2cn(CC(C)C)c3ccc(Cl)cc23)C(=O)O)cc1 [Example 85, N-{[4-(but-2-ynyloxy)phenyl]sulfonyl}-5-chloro-1-isobutyltryptophan] | 32.9
18 | CC#CCOc1ccc(S(=O)(=O)N[C@@H](Cc2c(C)n(CC(C)C)c3ccc(Cl)cc23)C(=O)O)cc1 [Example 101, N-{[4-(but-2-ynyloxy)phenyl]sulfonyl}-5-chloro-1-isobutyl-2-methyltryptophan] | 68.5
19 | CC#CCOc1ccc(S(=O)(=O)N[C@@H](Cc2cn(Cc3ccc(Cl)cc3)c3ccc(Cl)cc23)C(=O)O)cc1 [Example 81, N-{[4-(but-2-ynyloxy)phenyl]sulfonyl}-5-chloro-1-(4-chlorobenzyl)tryptophan] | 13.9
20 | CC#CCOc1ccc(S(=O)(=O)N[C@@H](Cc2c(C)n(Cc3ccc(OC)cc3)c3ccccc23)C(=O)O)cc1 [Example 148, N-{[4-(but-2-ynyloxy)phenyl]sulfonyl}-1-(4-methoxybenzyl)-2-methyltryptophan] | 44.1
